Assay results from PMC7996082, “The translocator protein ligands as mitochondrial functional modulators for the potential anti-Alzheimer agents” (Journal of Enzyme Inhibition and Medicinal Chemistry, 2021).

Assays:
[1] = system: HT-22 (mouse hippocampal cells) cells treated with Aβ; assay: JC-1 assay: recovery of mitochondrial membrane potential (ΔΨm) after Aβ; assay type: cell-based; conditions: 5 μM compound, 5 μM Aβ, HT22 cells; 0% = Aβ-induced damaged condition, 100% = normal condition
Protocol: Thirty thousand HT-22 cells per well were seeded into a clear 96-well plate (FALCON) at 200 µL per well one day prior to assay. 750 mM of JC-1 (Stratagene) in DMSO stock solution was dissolved into phenol red-free Opti-MEM (GIBCO) medium to make final concentration of 7.5 mM JC-1 per well. Medium was removed from the plate, and 100 µL per well of JC-1 was added. The sample plates were incubated for 1 h and 15 min at 37 °C and washed twice with 100 µL per well of PBS. Subsequently, cells were treated with a 25 µL solution of each compound at 10 µM in Opti-MEM and incubated at 37 °C for 10 min followed by addition of a 25 µL of Aβ (American peptide, 1-42) solution at 10 µM. Fluorescence was measured at every one hour for three hours at ex/em 530 nm/580 nm (“red”) and ex/em 485 nm/530 nm (“green”) by using the Flexstation® 3 (Molecular Devices, USA) reader. The ratio of green to red fluorescence was calculated and normalised by taking the percent changes using vehicle control as 100%.
The selected 56 compounds were purchased and tested by in vitro cell-based assays. Four different cell-based assays (JC-1, MTT, ATP production, and cellular ROS assays) were carried out sequentially. First, the JC-1 assay was performed to screen all 56 compounds, VH001–VH056 (Supplementary Table S1). Since mitochondrial membrane depolarisation is one of the distinct signs of mPTP opening, the mitochondrial uptake of a fluorescent JC-1 dye (5,59,6,69-tetrachloro-1,19,3,39-tetraethylbenzimidazolocarbocyanine iodide) was measured to evaluate the effects of each compound on the mitochondrial membrane potential (ΔΨm). HT22 cells, a mouse hippocampal cell line, were treated with 5 µM of Aβ, incubated with each compound at the same concentration of 5 µM, and subsequently treated with JC-1. On the basis of changes in the red/green fluorescence intensity ratio between the cells treated with Aβ and control, the percent recovery of ΔΨm for each compound was calculated and normalised to the ΔΨm of healthy cells as 100%.
Compd Structure ∆Ψm at 5 Compd Structure ∆Ψm at 5 […]
a After the treatment of each compound (5 μM) and Aβ (5 μM) in HT22 cell, the increase of fluorescence ratio (green/red) was measured and normalized by taking the change of the ratio between 0% (Aβ-induced damaged condition) and 100% (normal condition in the absence of Aβ).

[2] = MTT assay: HT22 cell viability with compound alone; assay type: cell-based, mouse; conditions: mouse, HT22 cells; HT22 cell viability after 24 h of treatment with 5 μM compound, no Aβ
Protocol: To a clear 96-well plate (FALCON), the cultured HT-22 cells were seeded in a number of 5,000 per well 24 h prior to the assay. A solution of each test compound (5 µM, 25 µL) was added to each well. After 24 h of incubation at 37 °C, the cells were treated with a 10 µL of MTT solution (3–(4,5-dimethylthiazol-2-yl)-2,5-diphenyltetrazolium bromide, Sigma-Aldrich), incubated for 2 h at 37 °C, and were treated with 135 µL of MTT solubilising solution (10% Triton-X 100 in isopropanol with 0.1 M HCl) for 2 h at 37 °C. The % values of cell viability were determined by using the optical density (OD) values at 560 nm, and normalised by taking the vehicle control (5 µM of DMSO) as […].

[3] = Liver microsomal stability; assay type: in vitro ADME; conditions: human, liver microsomes, 1 µM compound, 0.5 mg/mL microsomes, 30 min, 37 °C; read-out: Human Liver Microsomal Stability (% remaining after 30 min)
Protocol: Liver microsomes (human, dog, rat, and mouse; 0.5 mg/mL) were incubated with 1 µM of each test compound in the presence of potassium phosphate buffer (PPB) for 5 min at 37 °C. A solution of the NADPH regeneration system (#44332000, Oriental Yeast Co., Japan) was added to begin metabolic reactions of liver microsomes. The resulting mixtures were incubated for 30 min at 37 °C, and the reaction was terminated by the addition of a cold MeCN solution containing an internal standard (chlorpropamide). The mixture was separated by centrifugation (14,000 rpm for 5 min at 4 °C), and the supernatant was analysed by LC-MS/MS (Shimadzu Nexera XR system and TSQ vantage; Thermo Scientific).

[4] = molecular target: T1, CYP2D6 (Homo sapiens, UniProt P10635); assay: CYP inhibition assay (Vivid CYP450 screening kit); assay type: in vitro ADME; conditions: 10 μM compound
T1 construct: purchased Invitrogen, Madison, WI, USA
Protocol: (§1) Human CYP450 (CYP1A2, 2D6, 2C9, 2C19, and 3A4) activities were determined by using the Vivid® CYP450 screening kit (Invitrogen, Madison, WI, USA) in a clear 96-well plate. Five positive controls were used as 10 mM solutions in MeCN for five different CYP450 enzymes: CYP1A2 (α-naphthoflavone), CYP2D6 (quinidine), CYP2C9 (sulfaphenazole), CYP2C19 (lansoprazole), and CYP3A4 (ketoconazole). Each sample (test compounds, positive inhibition controls, and solvent controls) was added into each well with the Master Pre-Mix [CYP450 BACULOSOMES® Reagent (recombinant human CYP450 isozyme and rabbit NADPHP450 reductase) and Regeneration System (3.3 mM glucose-6-phosphate and 0.3 U/ml glucose-6-phosphate dehydrogenase in 100 mM potassium phosphate, pH 8.0)]. The mixture was incubated for 5 min at 37 °C, and the Vivid® CYP substrates and 0.1 mM NADP^+ buffer were added to initiate the CYP450 enzyme reaction. The % remaining activities of CYP450 were measured after 20 min by using a fluorescent plate reader (Flexstation® 3, Molecular Devices, USA).

[5] = molecular target: T2, CYP1A2 (Homo sapiens, UniProt P05177); assay: CYP inhibition assay (Vivid CYP450 screening kit); assay type: in vitro ADME; conditions: 10 μM compound
T2 construct: purchased Invitrogen, Madison, WI, USA
T2 sequence (P05177 2-516 limits assumed): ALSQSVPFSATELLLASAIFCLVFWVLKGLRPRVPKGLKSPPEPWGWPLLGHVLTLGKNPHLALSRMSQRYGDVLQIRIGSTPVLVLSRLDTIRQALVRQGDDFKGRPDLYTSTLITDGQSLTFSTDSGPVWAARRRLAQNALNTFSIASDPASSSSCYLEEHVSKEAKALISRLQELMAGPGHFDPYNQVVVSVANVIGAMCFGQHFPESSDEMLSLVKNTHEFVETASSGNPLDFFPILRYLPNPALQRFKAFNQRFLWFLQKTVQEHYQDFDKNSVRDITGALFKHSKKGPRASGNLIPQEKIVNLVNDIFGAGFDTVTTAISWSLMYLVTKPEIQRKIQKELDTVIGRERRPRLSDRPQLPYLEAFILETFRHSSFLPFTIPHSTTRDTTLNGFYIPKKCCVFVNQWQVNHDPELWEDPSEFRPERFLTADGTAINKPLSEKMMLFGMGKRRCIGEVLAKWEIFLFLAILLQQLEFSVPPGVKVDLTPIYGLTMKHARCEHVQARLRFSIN
Protocol: as §1

[6] = molecular target: T3, CYP2C9 (Homo sapiens, UniProt P11712); assay: CYP inhibition assay (Vivid CYP450 screening kit); assay type: in vitro ADME; conditions: 10 μM compound
T3 construct: purchased Invitrogen, Madison, WI, USA
Protocol: as §1

[7] = molecular target: T4, CYP3A4 (Homo sapiens, UniProt P08684); assay: CYP inhibition assay (Vivid CYP450 screening kit); assay type: in vitro ADME; conditions: 10 μM compound
T4 construct: purchased Invitrogen, Madison, WI, USA
Protocol: as §1

[8] = molecular target: T5, CYP2C19 (Homo sapiens, UniProt P33261); assay: CYP inhibition assay (Vivid CYP450 screening kit); assay type: in vitro ADME; conditions: 10 μM compound
T5 construct: purchased Invitrogen, Madison, WI, USA
Protocol: as §1

[9] = molecular target: T6, hERG channel (Homo sapiens, UniProt Q12809); assay: hERG inhibition assay (automated patch-clamp, CHO-K1 Tet-On hERG cells); assay type: cell-based; conditions: patch-clamp, ± SD
T6 construct: host or cells: CHO-K1 Tet-On hERG cells
Protocol: For automated patch-clamp NPC-16 Patchliner (Nanion Technologies, München, Germany) recordings, CHO-K1 Tet-On hERG cells (IonGate Biosciences GmbH, Frankfurt, Germany) were plated into 100-mm cell culture dishes. Whole-cell currents were recorded with the intracellular solution containing: 50 mM KCl, 60 mM KF, 10 mM NaCl, 2 mM MgCl2, 20 mM EGTA and 10 mM HEPES (pH 7.2), and with the extracellular solution containing: 140 mM NaCl, 4 mM KCl, 2 mM CaCl2, 1 mM MgCl2, 5 mM Glucose and 10 HEPES (pH 7.4). To assist stable seal formations, the seal enhancer containing: 80 mM NaCl, 3 mM KCl, 35 mM CaCl2, 10 mM MgCl2 and 10 mM HEPES (pH 7.4) was used only at the seal formation step. Prior to the whole-cell recordings, the external seal enhancing solution was exchanged to the extracellular solution described above. hERG channel currents were recorded using the parallel EPC-10 patch-clamp amplifiers (HEKA Elektronik, Lambrecht/Pfalz, Germany), and low-pass filtered (10 kHz) with a 4-pole Bessel filter. Cell suspension and patch solutions were automatically added onto the four recording wells in the microfabricated disposable chip (NPC-16 Chip, Nanion Technologies, München, Germany). To obtain the inhibitory constants, hERG tail currents were evoked by repolarizing steps to −50 mV for 500 ms preceded by a 500-ms depolarisation potential of +20 mV at a holding potential of −80 mV with a 20-s sweep interval. Whole-cell currents were acquired and digitised at 5 kHz using Patchmaster (HEKA Elektronik, Lambrecht/Pfalz, Germany). The extracellular solution was exchanged to the extracellular solution containing each blocker via four pipette tips of NPC-16 Patchliner using a 4-fold volume of solution (40 µL) with a speed of 4 µL/s, and the exchanged blocker solution was applied for 100–200 s to the patch-clamped cells until blocker binding had reached equilibrium by monitoring hERG tail currents. Whole-cell recordings were analysed using the Patchmaster/Fitmaster (HEKA Elektronik, Lambrecht/Pfalz, Germany), IGOR Pro (WaveMetrics Inc., Portland, OR, USA), and the GraphPad Prism 4.0 (GraphPad Software, Inc., La Jolla, CA, USA) software.

T6 sequence (Q12809 whole entry): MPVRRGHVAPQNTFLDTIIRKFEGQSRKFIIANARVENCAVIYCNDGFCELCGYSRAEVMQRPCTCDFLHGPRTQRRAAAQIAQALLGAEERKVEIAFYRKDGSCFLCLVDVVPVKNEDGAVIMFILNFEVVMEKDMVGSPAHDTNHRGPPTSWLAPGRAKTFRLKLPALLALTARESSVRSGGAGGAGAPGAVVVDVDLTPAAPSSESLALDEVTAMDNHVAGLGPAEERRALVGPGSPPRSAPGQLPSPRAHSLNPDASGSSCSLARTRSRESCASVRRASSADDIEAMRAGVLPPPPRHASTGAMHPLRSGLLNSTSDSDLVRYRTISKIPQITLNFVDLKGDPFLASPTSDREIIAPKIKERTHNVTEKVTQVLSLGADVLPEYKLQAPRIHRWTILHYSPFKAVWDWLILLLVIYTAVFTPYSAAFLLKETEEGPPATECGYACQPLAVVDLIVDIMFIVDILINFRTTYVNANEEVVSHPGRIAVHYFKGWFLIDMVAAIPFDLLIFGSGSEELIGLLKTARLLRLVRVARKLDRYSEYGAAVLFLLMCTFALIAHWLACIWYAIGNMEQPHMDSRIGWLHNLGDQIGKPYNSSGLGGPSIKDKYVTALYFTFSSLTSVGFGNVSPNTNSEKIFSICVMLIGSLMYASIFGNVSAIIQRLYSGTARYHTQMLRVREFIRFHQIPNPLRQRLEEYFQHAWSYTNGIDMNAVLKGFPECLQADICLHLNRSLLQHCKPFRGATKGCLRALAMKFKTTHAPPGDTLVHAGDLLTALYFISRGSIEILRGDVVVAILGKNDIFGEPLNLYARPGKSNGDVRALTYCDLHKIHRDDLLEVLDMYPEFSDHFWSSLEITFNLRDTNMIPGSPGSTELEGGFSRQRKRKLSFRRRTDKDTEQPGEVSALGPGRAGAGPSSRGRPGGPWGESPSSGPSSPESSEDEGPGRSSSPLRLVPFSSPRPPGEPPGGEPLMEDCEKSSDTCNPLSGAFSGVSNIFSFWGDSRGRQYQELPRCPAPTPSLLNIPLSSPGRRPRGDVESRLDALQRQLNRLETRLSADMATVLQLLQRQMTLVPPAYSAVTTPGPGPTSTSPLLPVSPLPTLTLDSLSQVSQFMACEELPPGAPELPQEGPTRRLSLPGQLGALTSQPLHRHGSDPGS
T4 sequence (P08684 2-503 limits assumed): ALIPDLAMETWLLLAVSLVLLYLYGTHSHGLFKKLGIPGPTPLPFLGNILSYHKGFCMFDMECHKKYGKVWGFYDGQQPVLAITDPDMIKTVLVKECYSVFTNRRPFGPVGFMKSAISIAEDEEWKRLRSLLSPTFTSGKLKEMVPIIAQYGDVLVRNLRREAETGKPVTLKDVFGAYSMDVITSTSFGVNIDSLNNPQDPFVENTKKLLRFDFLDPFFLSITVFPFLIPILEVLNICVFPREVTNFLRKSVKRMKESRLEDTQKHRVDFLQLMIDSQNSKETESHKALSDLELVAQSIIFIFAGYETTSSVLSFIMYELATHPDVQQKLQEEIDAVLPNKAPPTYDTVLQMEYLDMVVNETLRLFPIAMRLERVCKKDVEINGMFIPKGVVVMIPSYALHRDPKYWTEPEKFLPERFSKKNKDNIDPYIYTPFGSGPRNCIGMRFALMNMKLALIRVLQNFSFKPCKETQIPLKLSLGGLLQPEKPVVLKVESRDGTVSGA
T3 sequence (P11712 whole entry): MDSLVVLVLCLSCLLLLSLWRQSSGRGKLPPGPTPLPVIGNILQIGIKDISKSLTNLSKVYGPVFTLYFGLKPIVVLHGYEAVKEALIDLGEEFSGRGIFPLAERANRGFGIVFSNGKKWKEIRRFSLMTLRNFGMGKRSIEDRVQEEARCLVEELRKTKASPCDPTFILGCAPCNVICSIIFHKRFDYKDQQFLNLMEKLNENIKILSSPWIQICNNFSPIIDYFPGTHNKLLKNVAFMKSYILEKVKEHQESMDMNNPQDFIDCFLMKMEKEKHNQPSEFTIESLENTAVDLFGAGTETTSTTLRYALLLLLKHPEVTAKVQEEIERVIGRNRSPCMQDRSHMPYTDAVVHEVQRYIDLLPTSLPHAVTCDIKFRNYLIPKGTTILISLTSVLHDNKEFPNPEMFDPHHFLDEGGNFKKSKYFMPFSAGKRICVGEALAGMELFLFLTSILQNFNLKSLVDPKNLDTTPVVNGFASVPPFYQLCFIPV
T5 sequence (P33261 whole entry): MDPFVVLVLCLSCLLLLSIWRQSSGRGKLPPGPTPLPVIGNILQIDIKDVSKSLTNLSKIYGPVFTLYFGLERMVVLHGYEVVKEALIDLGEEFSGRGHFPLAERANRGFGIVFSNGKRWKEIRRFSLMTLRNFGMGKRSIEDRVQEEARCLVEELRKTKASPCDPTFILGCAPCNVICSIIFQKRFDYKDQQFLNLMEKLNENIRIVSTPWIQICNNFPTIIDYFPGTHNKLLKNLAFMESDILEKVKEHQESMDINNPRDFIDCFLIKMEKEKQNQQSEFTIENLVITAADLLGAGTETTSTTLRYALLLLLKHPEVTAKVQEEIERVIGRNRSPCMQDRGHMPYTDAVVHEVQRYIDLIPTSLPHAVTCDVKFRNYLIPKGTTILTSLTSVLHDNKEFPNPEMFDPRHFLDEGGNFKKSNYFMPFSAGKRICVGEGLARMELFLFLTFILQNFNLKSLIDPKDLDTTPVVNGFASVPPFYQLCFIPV
T1 sequence (P10635 whole entry): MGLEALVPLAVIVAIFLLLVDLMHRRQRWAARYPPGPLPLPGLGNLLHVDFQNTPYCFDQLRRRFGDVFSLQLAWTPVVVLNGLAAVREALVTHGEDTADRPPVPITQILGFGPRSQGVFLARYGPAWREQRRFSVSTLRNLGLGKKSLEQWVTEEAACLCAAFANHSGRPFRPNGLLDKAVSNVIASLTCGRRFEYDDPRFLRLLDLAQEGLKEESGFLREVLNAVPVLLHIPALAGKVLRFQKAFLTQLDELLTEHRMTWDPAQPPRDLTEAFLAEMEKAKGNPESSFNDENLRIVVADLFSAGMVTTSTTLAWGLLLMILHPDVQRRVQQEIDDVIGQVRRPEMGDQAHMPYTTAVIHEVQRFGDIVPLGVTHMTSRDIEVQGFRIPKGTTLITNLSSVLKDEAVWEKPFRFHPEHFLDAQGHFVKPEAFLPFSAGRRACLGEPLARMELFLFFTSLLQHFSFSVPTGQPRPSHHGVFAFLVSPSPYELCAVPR

Structure (SMILES) | Recovery of ΔΨm (%) [1] [%] | viability at 24 h, 5 µM [2] [%] | remaining at 0.5 h, 1 µM [3] [%] | CYP450 (% remaining Activity at 10 μM) CYP2D6 [4] [%] | CYP450 (% remaining Activity at 10 μM) CYP1A2 [5] [%] | CYP450 (% remaining Activity at 10 μM) CYP2C9 [6] [%] | CYP450 (% remaining Activity at 10 μM) CYP3A4 [7] [%] | CYP450 (% remaining Activity at 10 μM) CYP2C19 [8] [%] | IC50 [9] [µM]
CCOc1ccc(-c2cc(C(=O)NCCCN(CC)CC)c3ccccc3n2)cc1 [VH022] | 36 | – | – | – | – | – | – | – | –
CCOc1ccc(-n2c(SCC(=O)NCc3ccc(C)cc3)nc3sc4c(c3c2=O)CCN(C(C)=O)C4)cc1 [Compound 36] | – | 96 | 0 | 98.9 | 123.6 | 50.4 | 17.3 | 92.7 | 22 ± 12.7
CCOc1ccc(-n2c(SCC(=O)Nc3ccc(Cl)cc3)nc3sc4c(c3c2=O)CCN(C(C)=O)C4)cc1 [Compound 35] | – | 107 | 0.1 | 113.8 | 120.0 | 64.0 | 70.7 | 72.0 | 30 ± 10.2
CCOc1ccc(-c2cc(C(=O)NCc3cccc(OC)c3)c3ccccc3n2)cc1 [VH025] | 12 | – | – | – | – | – | – | – | –
CCc1ccc(Nc2cc(C(=O)NCCc3cccc(C)c3)c3ccccc3n2)cc1 [VH029] | 18 | – | – | – | – | – | – | – | –
CCN1CCCC1CNC(=O)c1cc(Nc2ccc(C)c(C)c2)nc2ccccc12 (stereo not drawn) [VH023] | 62 | – | – | – | – | – | – | – | –
CCOc1ccc(-n2c(SCC(=O)N(C)Cc3ccccc3)nc3sc4c(c3c2=O)CCN(C(C)=O)C4)cc1 [Compound 32] | – | 88 | < 10 | 91.7 | 117.3 | 30.9 | 49.3 | 23.3 | 6.53 ± 2.46
CCOc1ccc(-n2c(SCC(=O)N(CC)Cc3ccccc3)nc3sc4c(c3c2=O)CCN(C)C4)cc1 [Compound 51] | – | 107 | 82 | 61.4 | 98.7 | 105.8 | 44.1 | 52.5 | 10 ± 3.6
CCOc1ccc(-n2c(SCC(=O)Nc3ccc(C)cc3)nc3sc4c(c3c2=O)CCN(C)C4)cc1 [Compound 55] | – | 127 | 49.1 | 59.2 | 69.2 | 43.0 | 23.0 | 31.2 | 5.63 ± 1.75
CCOc1ccc(-n2c(SCC(=O)NCc3ccc(Cl)cc3)nc3sc4c(c3c2=O)CCN(C(C)=O)C4)cc1 [Compound 34] | – | 97 | 0 | 92.6 | 160.6 | 32.9 | 15.0 | 56.8 | 4.13 ± 1.39
CCOc1ccc(-n2c(SCC(=O)N(CC)Cc3ccccc3)nc3sc4c(c3c2=O)CCN(C(C)=O)C4)cc1 [Compound 33] | – | 104 | < 10 | 82.0 | 150.5 | 32.8 | 56.6 | 35.7 | 2.77 ± 1.18
